Laboratory results as given in the NIST ThermoML archive (doi:10.1021/je700428f).

What was measured:
[1] = xn = mol fraction of the nth substance listed; conditions: 101 kPa, Liquid
[2] = 101 kPa, Liquid; for viscosity: Capillary tube (Ostwald / Ubbelohde) method

COC(C)(C)C [2-methoxy-2-methylpropane] + CCCCCCCCC
[1], x1 = 1
Conditions	mass density [kg/m3]
273.15 K	761.34
278.15 K	756.14
283.15 K	751.02
288.15 K	745.85
293.15 K	740.65
298.15 K	735.4
303.15 K	730.1
308.15 K	724.82
313.15 K	719.42
318.15 K	713.96

COC(C)(C)C [2-methoxy-2-methylpropane]
[2]
Conditions	mass density [kg/m3]
273.15 K	761.34
278.15 K	756.14
283.15 K	751.02
288.15 K	745.85
293.15 K	740.65
298.15 K	735.4
303.15 K	730.1
308.15 K	724.82
313.15 K	719.42
318.15 K	713.96

CCCCCCCCCC [decane]
[2]
Conditions	mass density [kg/m3]
273.15 K	745.374
278.15 K	741.257
283.15 K	737.502
288.15 K	733.733
293.15 K	729.958
298.15 K	726.174
303.15 K	722.377
308.15 K	718.573
313.15 K	714.753
318.15 K	710.92
323.15 K	707.074
328.15 K	703.213
333.15 K	699.334
338.15 K	695.439
343.15 K	691.522
348.15 K	687.587
353.15 K	683.631
358.15 K	679.651
363.15 K	675.648

CCCCCCCCC [nonane]
[2]
Conditions	mass density [kg/m3]	viscosity [mPa·s]
273.15 K	733.184	0.972
278.15 K	729.335	0.896
283.15 K	725.473	0.828
288.15 K	721.603	0.768
293.15 K	717.725	0.716
298.15 K	713.834	0.669
303.15 K	709.929	0.628
308.15 K	706.011	0.59
313.15 K	702.076	0.555
318.15 K	698.124	0.522
323.15 K	694.151	0.493
328.15 K	690.165	0.466
333.15 K	686.154	0.442
338.15 K	682.116	0.42
343.15 K	678.06	0.399
348.15 K	673.979	0.38
353.15 K	669.872	0.362
358.15 K	665.73	0.346
363.15 K	661.557	–

CCCCCCCCCC [decane] + COC(C)(C)C
[1], x2 = 0
Conditions	mass density [kg/m3]
273.15 K	745.374
278.15 K	741.257
283.15 K	737.502
288.15 K	733.733
293.15 K	729.958
298.15 K	726.174
303.15 K	722.377
308.15 K	718.573
313.15 K	714.753
318.15 K	710.92
323.15 K	707.074
328.15 K	703.213
333.15 K	699.334
338.15 K	695.439
343.15 K	691.522
348.15 K	687.587
353.15 K	683.631
358.15 K	679.651
363.15 K	675.648
